Assay results as given in US20200061092A1, “METHODS AND COMPOSITIONS FOR TREATING DISORDERS ASSOCIATED WITH MUSCLE WEAKNESS” (priority 2018, published 2020).
Where “and” joins values, the source holds several entries; their conditions need not be identical. Equal values may be shown once.

Legend:
FKRP P448L mutant mice = experiment: Histopathological and morphometric analysis (H&E, Masson's Trichrome) of muscles of P448L mice; assay type: in vivo, mouse
Description: Ribitol was purchased from Sigma (A5502 Adonitol, ≥98%, Sigma, St. Louis) and dissolved in drinking water to the final concentration of 5% or 10%. […] mice aged at 4 weeks were treated with 5% ribitol drinking water for 1 month and […] mice aged at 7 weeks were treated with 5% ribitol drinking water for 3 months and 6 months. All the mice were randomly assigned to either treatment or control groups. And a minimum number of 4 mice were used for each group. No animal was excluded. […] female breeders were given 10% ribitol in drinking water during pregnancy, and pups continued to be treated with 10% ribitol in drinking water until they were euthanized at 19 weeks of age. Untreated age-matched […] and wild-type C57BL/6 mice were used as controls. The animals were terminated at the end of each treatment time point and tissues including heart, diaphragm, TA, quadriceps, liver, spleen and kidney were collected for analyses. Frozen tissues were processed for hematoxylin and eosin (H&E) and Masson's Trichrome staining following standard procedures. Muscle cross-sectional fiber equivalent diameter was determined from tibialis anterior and quadriceps stained with H&E using MetaMorph v7.7 Software (Molecular Devices). Percentage of centrally nucleated myofibers were manually quantified from the same tissue sections stained with H&E. Fibrotic area represented by blue staining in the Masson's Trichrome stained sections was quantified from heart, diaphragm, tibialis anterior and quadriceps using ImageJ software. For all the morphometric analyses, a total of 300 to 400 fibers from two representative 20× magnification images per each muscle per animal were used.

[1] = Serum ribitol measurement by LC/MS-MS; assay type: in vivo
Description: Ribitol was purchased from Sigma (A5502). Sera were collected, and blinded samples were placed in individual wells of a 96-well plate and analyzed by LC/MS-MS. An Applied Biosystems Sciex 4000 (Applied Biosystems; Foster City, Calif.) equipped with a Shimadzu HPLC (Shimadzu Scientific Instruments, Inc.: Columbia, Md.) and Leap auto-sampler (LEAP Technologies; Carrboro, N.C.) were used to detect ribitol from samples and synthetic compound. […] MeOH:ACN (1:1). The following gradient was used: 0-12 min, 5% buffer B; 13-14 min, 95% buffer B, 15-17 min, 5% buffer B. Under these conditions, ribitol eluted at 8.3 min. The metabolite was analyzed using electrospray ionization mass spectrometry operated in positive ion mode, ESI+. Compound concentrations in tissue samples were determined based on standard curves prepared by serial dilutions (200-0.01 μM) of the compound in MeOH:ACN (1:1).

[2] = system: FKRP and LARGE transcripts; experiment: Quantitative real-time PCR of FKRP and LARGE transcripts in muscles of P448L mice; assay type: in vivo, mouse; settings: 5% ribitol, 3 months (FIG. 11b); cardiac muscle, limb muscle, diaphragm
Description: Tissues were collected from heart, diaphragm and tibialis anterior. RNA was extracted using TRIzol (Invitrogen) following the supplied protocol. Final RNA pellet was re-suspended in 20 μl RNAse-nuclease free water. Final RNA concentration was determined using Nanodrop 2000c. One μg of RNA was subsequently converted to cDNA using the High-Capacity RNA-to-cDNA™ Kit (Applied Biosystems) following the supplied protocol. cDNA was then used for quantitative real-time PCR using the mouse FKRP-FAM (Mm00557870_m1) and LARGE-FAM (Mm00521885 ml) taqman assay with primer limited GAPDH-VIC (Mm99999915_g1) as the internal control and TaqMan® Universal Master Mix II, with UNG (Life Technologies). […] Results of FKRP and LARGE transcript were calculated and expressed as 2^-ΔΔCt and compared across tissues and animals.

[3] = system: muscular dystrophy caused by FKRP mutations; experiment: Ribitol/ribose supplementation in animal model of FKRP mutation muscular dystrophy; assay type: in vivo; settings: supplement via drinking water
[4] = system: ribitol, ribitol-5P and CDP-ribitol levels in heart and quadriceps; experiment: LC/MS-MS quantification of ribitol, ribitol-5P and CDP-ribitol in muscle tissues of P448L mice; assay type: in vivo, mouse; settings: 5% ribitol 1 month
Description: Ribitol was purchased from Sigma (A5502 Adonitol, ≥98%, Sigma, St. Louis) and dissolved in drinking water to the final concentration of 5% or 10%. […] mice aged at 4 weeks were treated with 5% ribitol drinking water for 1 month and […] mice aged at 7 weeks were treated with 5% ribitol drinking water for 3 months and 6 months. All the mice were randomly assigned to either treatment or control groups. And a minimum number of 4 mice were used for each group. No animal was excluded. […] female breeders were given 10% ribitol in drinking water during pregnancy, and pups continued to be treated with 10% ribitol in drinking water until they were euthanized at 19 weeks of age. Untreated age-matched […] and wild-type C57BL/6 mice were used as controls. The animals were terminated at the end of each treatment time point and tissues including heart, diaphragm, TA, quadriceps, liver, spleen and kidney were collected for analyses. Ribitol was purchased from Sigma (A5502). […] The supernatants were removed, transferred to individual wells of 96-well plate and analyzed by LC/MS-MS. […] The metabolites were analyzed using electrospray ionization mass spectrometry operated in positive ion mode, ESI+. Compounds concentration in tissue samples were determined based on standard curves prepared by serial dilutions (200-0.01 μM) of each of the compound in MeOH:ACN (1:1).

[5] = 10% ribitol from pregnancy to 19 weeks
[6] = 5% ribitol in drinking water (n = 4)

OC[C@@H](O)[C@@H](O)[C@@H](O)CO [ribitol]
Fibrotic area in cardiac muscle vs untreated (FKRP P448L mutant mice; 5% ribitol, 3 and 6 months): significant reduction | Number of fibers with small diameters (TA and quadriceps) (FKRP P448L mutant mice; 5% ribitol, 3 and 6 months): statistically significant decrease | Percentage of CNF (TA and quadriceps) vs untreated (FKRP P448L mutant mice; 5% ribitol, 3 and 6 months): No significant difference | Areas of fibrotic tissue (Masson's Trichrome) vs untreated (FKRP P448L mutant mice; 5% ribitol, 3 and 6 months, limb muscles): significantly decreased | Fibrotic tissue in diaphragm (% of tissue cross-section area) (FKRP P448L mutant mice; 5% ribitol, 3 month treatment): 11% | Fibrotic tissue in diaphragm (% of tissue cross-section area) (FKRP P448L mutant mice; 5% ribitol, 6 month treatment): 18% | Centrally nucleated fibers (CNF) in TA vs untreated (FKRP P448L mutant mice; [5]): significantly fewer | Fibrosis in cardiac muscle and diaphragm (FKRP P448L mutant mice; [5]): reduction in fibrosis was significant in cardiac muscle, and most prominent in the diaphragm | Mean serum ribitol [1, 6]: 2355 ug ug/L | Serum ribitol, individual animals [1, 6]: 924 ng/ml and 4221 ng/ml and 3184 ng/ml and 1092, ng/ml | Therapeutic serum concentration in excess of normal ribitol serum levels ([1]; about 10 mg/L vs normal serum level): roughly 1000 × | Tolerability at therapeutic serum concentration ([1]; serum about 10 mg/L): no observable side effects | FKRP and LARGE transcript levels, treated vs untreated [2]: No statistically significant difference | Disease pathology of muscular dystrophy caused by FKRP mutations [3]: diminish disease pathology | Levels of ribitol, ribitol-5P and CDP-ribitol vs untreated P448L ([4]; heart and quadricep): increased levels | CDP-ribitol levels, treated vs untreated ([4]; heart and quadriceps): at least 4 fold
